Measured values published in patent US9180163B2, “Parstatin peptides” (priority 2009, dated 2015).

Assays:
[1] = system: retinal neovascularization in C57BL/6 mice; format: in vivo; settings: 5 μg intravitreal P12 and P15; P17; vs vehicle (PBS or DMSO)
Description: Parstatin (1-41), hydrophobic parstatin (1-26) fragment and hydrophilic parstatin (24-41) fragment were used in an in vivo mouse model of retinal neovascularization. In particular, oxygen-induced retinopathy was used to generate retinal neovascularization as a preclinical disease model for retinopathy of prematurity and other retinal neovascular diseases such as diabetic retinopathy. In this model, exposing newborn mice to hyperoxia prompts regression or delay of retinal vascular development, followed by abnormal angiogenesis after their return to normal oxygen levels. Mainly, this model mirrors the events that occur during retinopathy of prematurity, when infants are removed from oxygen-rich incubators, a condition involving pathological neovascularization that can affect premature infants and result in permanent visual loss. In recent years, the use of this model has been extended to the general study of ischemic vasculopathies, such us diabetic retinopathy, and related antiangiogenic interventions, and it is now used extensively in both basic and applied research environments.
Pathogen-free C57BL/6 mice were treated in accordance with the Association for Research in Vision and Ophthalmology Statement for the Use of Animals in Ophthalmic and Vision Research and the guidelines of the Animal Care and Use Committee at local University Medical School. Litters of 7-day old (P7) mice were exposed to an atmosphere of 75% oxygen in an airtight incubator for 5 days (P12), after which they were returned to room air for 5 days (P17). For quantification of oxygen-induced retinal neovascularization, mice on P17 were given an intraocular injection of 1 μl of rat anti-mouse platelet endothelial cell adhesion molecule-1 (PECAM-1) antibody (Pharmingen, San Jose, Calif.) under a dissecting microscope with Harvard pump microinjection apparatus. Mice were euthanized 12 hours after injection and eyes were fixed in PBS-buffered formalin for 5 hours. […] Retinal flat mounts were prepared and assessed with fluorescence microscope using imaging software. […]

[2] = system: corneal neovascularization in Sprague-Dawley rats; assay: chemical burn-induced corneal neovascularization, image analysis; format: in vivo, rat; settings: 2×50 μg subconjunctival, day 7
Description: Parstatin (1-41), hydrophobic parstatin (1-26) fragment and hydrophilic parstatin (24-41) fragment were used in an in vivo rat model of corneal neovascularization. In particular, chemical burn-induced corneal trauma was used to generate corneal neovascularization as a preclinical disease model simulating a plethora of corneal diseases associated with abnormal formation of new blood vessels. The cornea is normally an avascular tissue that can be stimulated to undergo pathological neoangiogenesis in response to mechanical or chemical injuries, pterygium, herpetic keratitis, etc. In this model, an inflammatory response is considered an important prerequisite for neovascularization. This model is widely accepted and is one of the most extensively studied models, which provides an in vivo environment to study this complex process with convenient access to the corneal tissue and the highly visible developing vasculature.
Pathogen-free male Sprague-Dawley rats (250-300 gr) were treated in accordance with the Association for Research in Vision and Ophthalmology Statement for the Use of Animals in Ophthalmic and Vision Research and the guidelines of the Animal Care and Use Committee at local University Medical School. […] The corneal neovascularization was assessed using a semiautomatic program, which was developed in MATLAB 7.5. […]

HUVEC cells [3] = assay: MTT cell proliferation assay; format: cell-based, human; settings: 10 μM
Protocol: Cell proliferation was evaluated using a 3-(4,5-[…])-2,5-diphenyltetrazolium bromide (MTT, Sigma-Aldrich, St. Louis, Mo.) assay. Endothelial cells (10,000/well) were seeded in 24-well tissue culture plates and incubated with growth medium for 24 h. Cells were then treated with the vehicle or the indicated peptides in medium containing 5% FBS for 1 to 3 days. After 24, 48, or 72 hours, MTT solution (5 mg/ml) was added to each well and incubated for 3 h at 37° C. The blue formazan crystals were solubilized by addition of DMSO and absorbance at 450 nm was recorded using a 96-well plate reader.

HUVEC cells [4] = assay: modified Boyden's chamber cell migration assay; format: cell-based, human; settings: toward 5% FBS, 6 h; other peptides 10 μM
Protocol: HUVEC cell migration was assessed using a modified Boyden's chamber assay, i.e., in Transwell cell culture chambers (Corning Life Sciences, Acton, Mass.). Briefly, polycarbonate filters with 8 μm pores were used to separate the upper and the lower chambers. Cells were added to the upper compartment at a density of 10,000 cells/100 μl in serum-free medium containing 0.5% BSA and incubated for 6 h. Directional migration (chemotaxis) in the lower chamber was induced by addition of medium containing 5% FBS to the lower chamber. Where indicated parstatin or other peptides were added to lower chamber.
Cells on the filters were fixed and stained. The non-migrated cells (cells in upper surface) were removed by wiping with cotton swabs. The cells on the lower surface were counted manually under microscope in six predetermined fields. Parstatin (1-41) attenuated chemotactic cell migration through microporous membrane in response to serum (FIG. 3C). When human parstatin was combined with 5% FBS, the number of migrated cells was reduced in concentration-dependent manner.

Sequence	inhibition of retinal neovascularization [1] [%]	inhibition of corneal neovascularization [2] [%]	HUVEC cell proliferation (HUVEC cells [3])	chemotactic cell migration (HUVEC cells [4])
MGPRRLLLVAACFSLCGPLLSARTRA (listed as Homo sapiens) [parstatin (1-26)]	65	50		
TRARRPESKATNATLDPR (listed as Homo sapiens) [parstatin (24-41), 24-41 (18 amino acids) of human parstatin, hydrophilic fragment]	69	60	without effect	without effect
